According to ChEMBL document CHEMBL5291721, “A preclinical secondary pharmacology resource illuminates target-adverse drug reaction associations of marketed drugs” (Nat Commun, 2023):

Legend:
[1] = biological target: Beta-2 adrenergic receptor (Homo sapiens, UniProt P07550); assay type: functional, cell-based
[2] = biological target: T1, Type-1 angiotensin II receptor (Homo sapiens, UniProt P30556)
T1 sequence (P30556 whole entry): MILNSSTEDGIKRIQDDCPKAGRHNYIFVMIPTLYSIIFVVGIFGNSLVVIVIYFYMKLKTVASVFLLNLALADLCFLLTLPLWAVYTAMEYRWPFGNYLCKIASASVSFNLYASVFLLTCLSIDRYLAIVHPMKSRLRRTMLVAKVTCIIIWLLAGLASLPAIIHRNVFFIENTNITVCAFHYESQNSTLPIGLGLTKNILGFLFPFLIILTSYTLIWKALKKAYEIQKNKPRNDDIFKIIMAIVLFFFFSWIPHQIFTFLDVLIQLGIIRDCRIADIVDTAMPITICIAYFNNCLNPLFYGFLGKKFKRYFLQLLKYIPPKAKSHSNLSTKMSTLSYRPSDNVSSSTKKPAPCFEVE

[3] = biological target: Vasopressin V1a receptor (Homo sapiens, UniProt P37288)
Sequence of Vasopressin V1a receptor (P37288 whole entry): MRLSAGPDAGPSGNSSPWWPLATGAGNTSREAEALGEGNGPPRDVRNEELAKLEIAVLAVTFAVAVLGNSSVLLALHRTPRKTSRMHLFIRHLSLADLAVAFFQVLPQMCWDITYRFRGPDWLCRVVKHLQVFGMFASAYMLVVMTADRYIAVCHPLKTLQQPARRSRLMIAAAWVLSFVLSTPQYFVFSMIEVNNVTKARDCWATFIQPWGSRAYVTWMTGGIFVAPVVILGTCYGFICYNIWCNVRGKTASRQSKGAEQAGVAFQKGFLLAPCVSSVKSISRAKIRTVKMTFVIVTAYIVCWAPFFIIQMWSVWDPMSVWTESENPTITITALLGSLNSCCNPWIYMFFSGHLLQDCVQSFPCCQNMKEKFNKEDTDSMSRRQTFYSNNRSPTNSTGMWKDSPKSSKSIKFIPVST

[4] = biological target: T2, Muscarinic acetylcholine receptor M1 (Homo sapiens, UniProt P11229); assay type: functional, cell-based
T2 sequence (P11229 whole entry): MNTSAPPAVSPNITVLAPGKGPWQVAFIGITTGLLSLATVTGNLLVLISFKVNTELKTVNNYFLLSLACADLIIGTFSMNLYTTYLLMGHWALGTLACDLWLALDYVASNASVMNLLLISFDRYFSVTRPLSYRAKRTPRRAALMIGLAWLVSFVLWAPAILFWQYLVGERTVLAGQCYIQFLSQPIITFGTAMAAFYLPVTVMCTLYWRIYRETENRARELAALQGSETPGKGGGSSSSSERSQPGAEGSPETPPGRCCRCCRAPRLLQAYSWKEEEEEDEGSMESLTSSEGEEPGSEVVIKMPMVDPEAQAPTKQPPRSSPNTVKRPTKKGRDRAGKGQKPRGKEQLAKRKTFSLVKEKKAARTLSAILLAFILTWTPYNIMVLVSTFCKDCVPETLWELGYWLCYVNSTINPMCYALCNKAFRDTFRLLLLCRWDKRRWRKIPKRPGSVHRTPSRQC

[5] = biological target: Neuronal acetylcholine receptor subunit alpha-4 (Homo sapiens, UniProt P43681)
Sequence of Neuronal acetylcholine receptor subunit alpha-4 (P43681 whole entry): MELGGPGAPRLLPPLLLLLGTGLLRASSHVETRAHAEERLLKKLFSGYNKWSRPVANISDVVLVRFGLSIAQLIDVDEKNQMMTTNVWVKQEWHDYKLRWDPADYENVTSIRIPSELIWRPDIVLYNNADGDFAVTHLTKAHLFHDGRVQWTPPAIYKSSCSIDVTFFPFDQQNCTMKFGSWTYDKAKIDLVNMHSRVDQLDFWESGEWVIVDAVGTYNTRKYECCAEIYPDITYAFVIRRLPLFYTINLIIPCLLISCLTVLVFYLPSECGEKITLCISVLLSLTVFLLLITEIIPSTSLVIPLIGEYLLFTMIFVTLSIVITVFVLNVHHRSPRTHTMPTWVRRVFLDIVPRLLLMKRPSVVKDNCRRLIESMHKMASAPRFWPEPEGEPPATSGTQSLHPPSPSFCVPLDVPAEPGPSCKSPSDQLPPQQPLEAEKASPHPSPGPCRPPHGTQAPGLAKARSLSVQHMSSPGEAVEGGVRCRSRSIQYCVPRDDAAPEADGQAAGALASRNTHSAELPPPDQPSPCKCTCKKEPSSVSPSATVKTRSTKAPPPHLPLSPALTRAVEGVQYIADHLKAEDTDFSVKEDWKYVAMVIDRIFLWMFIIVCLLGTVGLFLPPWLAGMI

[6] = biological target: D(1A) dopamine receptor (Homo sapiens, UniProt P21728); assay type: functional, cell-based
Sequence of D(1A) dopamine receptor (P21728 whole entry): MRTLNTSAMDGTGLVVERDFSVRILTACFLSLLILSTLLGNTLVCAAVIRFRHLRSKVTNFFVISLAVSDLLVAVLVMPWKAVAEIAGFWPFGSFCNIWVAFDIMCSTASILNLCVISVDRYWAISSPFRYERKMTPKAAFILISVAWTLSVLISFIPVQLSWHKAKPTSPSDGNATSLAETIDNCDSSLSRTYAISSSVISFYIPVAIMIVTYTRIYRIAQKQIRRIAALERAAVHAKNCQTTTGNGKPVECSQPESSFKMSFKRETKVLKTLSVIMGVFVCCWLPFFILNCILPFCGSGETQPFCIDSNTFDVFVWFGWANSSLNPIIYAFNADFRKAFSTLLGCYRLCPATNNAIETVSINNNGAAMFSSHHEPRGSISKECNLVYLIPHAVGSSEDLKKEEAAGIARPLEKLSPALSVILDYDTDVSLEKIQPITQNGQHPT

[7] = biological target: Growth hormone secretagogue receptor type 1 (Homo sapiens, UniProt Q92847)
Sequence of Growth hormone secretagogue receptor type 1 (Q92847 whole entry): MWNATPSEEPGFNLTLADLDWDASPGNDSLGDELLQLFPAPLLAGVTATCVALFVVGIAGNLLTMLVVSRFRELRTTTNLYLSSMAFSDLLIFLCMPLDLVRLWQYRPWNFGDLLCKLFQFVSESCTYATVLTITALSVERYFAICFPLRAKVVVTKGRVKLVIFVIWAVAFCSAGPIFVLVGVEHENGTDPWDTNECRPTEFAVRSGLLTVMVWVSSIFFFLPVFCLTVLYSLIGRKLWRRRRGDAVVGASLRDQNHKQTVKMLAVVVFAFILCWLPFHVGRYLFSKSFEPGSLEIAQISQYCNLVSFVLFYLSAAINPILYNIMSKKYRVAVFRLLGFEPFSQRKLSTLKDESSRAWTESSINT

[8] = biological target: T3, Prostaglandin G/H synthase 1 (Rattus norvegicus, UniProt Q63921); assay type: functional
T3 sequence (Q63921 whole entry): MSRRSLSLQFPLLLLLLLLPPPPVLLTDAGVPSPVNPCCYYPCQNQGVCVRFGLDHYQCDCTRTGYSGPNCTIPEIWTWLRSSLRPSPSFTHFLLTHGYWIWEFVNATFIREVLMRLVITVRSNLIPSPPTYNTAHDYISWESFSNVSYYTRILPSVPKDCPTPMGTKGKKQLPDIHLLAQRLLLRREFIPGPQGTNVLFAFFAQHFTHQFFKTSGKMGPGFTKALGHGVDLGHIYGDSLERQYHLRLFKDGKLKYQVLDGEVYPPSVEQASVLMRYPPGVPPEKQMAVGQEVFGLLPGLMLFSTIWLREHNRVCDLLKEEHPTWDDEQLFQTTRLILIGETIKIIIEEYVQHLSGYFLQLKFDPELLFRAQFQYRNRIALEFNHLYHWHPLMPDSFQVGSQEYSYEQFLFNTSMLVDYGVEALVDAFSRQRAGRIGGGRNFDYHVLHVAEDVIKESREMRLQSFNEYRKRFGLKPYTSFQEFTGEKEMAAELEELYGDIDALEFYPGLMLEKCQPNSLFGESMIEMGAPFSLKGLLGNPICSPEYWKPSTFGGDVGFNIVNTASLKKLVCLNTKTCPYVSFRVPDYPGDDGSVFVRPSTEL

[9] = biological target: T4, Amine oxidase [flavin-containing] A (Homo sapiens, UniProt P21397); assay type: functional
T4 sequence (P21397 whole entry): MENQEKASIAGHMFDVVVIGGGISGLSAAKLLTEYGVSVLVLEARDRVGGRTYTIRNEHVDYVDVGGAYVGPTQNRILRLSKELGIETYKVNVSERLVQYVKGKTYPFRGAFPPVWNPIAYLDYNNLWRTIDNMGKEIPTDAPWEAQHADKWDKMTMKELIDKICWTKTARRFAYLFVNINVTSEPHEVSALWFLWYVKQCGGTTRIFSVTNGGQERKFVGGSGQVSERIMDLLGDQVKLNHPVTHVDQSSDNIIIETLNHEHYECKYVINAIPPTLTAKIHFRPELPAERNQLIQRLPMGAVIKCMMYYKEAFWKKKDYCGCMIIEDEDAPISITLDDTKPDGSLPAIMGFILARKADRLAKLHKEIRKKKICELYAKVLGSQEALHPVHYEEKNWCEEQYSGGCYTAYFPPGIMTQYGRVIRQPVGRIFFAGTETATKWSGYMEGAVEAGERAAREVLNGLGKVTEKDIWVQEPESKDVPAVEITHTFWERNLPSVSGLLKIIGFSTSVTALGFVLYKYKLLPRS

[10] = biological target: cGMP-inhibited 3',5'-cyclic phosphodiesterase 3A (Homo sapiens, UniProt Q14432); assay type: functional
Sequence of cGMP-inhibited 3',5'-cyclic phosphodiesterase 3A (Q14432 whole entry): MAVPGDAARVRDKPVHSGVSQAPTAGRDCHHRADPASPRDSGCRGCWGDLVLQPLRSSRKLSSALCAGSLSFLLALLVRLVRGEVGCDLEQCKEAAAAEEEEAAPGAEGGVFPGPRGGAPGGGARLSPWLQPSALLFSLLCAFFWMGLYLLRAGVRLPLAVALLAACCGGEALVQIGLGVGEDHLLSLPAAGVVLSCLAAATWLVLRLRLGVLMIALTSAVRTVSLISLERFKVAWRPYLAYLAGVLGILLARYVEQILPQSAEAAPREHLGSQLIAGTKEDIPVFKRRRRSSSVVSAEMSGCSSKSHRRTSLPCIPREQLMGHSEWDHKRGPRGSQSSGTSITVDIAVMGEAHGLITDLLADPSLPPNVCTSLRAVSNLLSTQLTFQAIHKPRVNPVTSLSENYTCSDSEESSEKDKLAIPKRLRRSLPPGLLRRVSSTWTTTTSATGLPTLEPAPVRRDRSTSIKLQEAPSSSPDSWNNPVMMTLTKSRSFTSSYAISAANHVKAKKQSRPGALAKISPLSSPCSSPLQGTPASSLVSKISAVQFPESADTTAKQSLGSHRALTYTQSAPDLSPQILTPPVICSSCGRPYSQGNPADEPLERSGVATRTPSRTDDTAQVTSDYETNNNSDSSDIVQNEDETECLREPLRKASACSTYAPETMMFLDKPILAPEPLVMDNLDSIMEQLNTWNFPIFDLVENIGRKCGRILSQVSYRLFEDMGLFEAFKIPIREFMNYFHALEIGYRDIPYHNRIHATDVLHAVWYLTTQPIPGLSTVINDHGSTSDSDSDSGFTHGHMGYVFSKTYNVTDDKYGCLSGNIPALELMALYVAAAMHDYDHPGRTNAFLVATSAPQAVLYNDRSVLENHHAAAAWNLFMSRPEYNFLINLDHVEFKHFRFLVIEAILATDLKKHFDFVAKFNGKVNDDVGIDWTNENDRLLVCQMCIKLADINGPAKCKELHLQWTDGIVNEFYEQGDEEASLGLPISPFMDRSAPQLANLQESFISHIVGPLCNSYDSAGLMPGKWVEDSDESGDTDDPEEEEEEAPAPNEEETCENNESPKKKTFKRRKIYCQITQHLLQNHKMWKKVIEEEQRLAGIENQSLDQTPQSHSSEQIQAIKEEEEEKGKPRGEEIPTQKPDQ

[11] = biological target: D(3) dopamine receptor (Homo sapiens, UniProt P35462)
Sequence of D(3) dopamine receptor (P35462 whole entry): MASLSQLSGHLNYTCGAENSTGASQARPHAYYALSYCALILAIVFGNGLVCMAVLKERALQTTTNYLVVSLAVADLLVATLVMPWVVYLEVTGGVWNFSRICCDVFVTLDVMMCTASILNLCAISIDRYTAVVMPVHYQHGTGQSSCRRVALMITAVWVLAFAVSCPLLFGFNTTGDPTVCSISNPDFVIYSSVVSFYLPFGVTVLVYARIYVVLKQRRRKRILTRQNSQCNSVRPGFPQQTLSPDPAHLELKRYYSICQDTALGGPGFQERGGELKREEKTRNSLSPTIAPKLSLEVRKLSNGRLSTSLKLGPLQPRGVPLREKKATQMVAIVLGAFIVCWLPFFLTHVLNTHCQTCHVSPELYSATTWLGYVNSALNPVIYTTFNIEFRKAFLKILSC

Measured: AC50
Also: assay procedure not described here.

Sequence of Beta-2 adrenergic receptor (P07550 whole entry): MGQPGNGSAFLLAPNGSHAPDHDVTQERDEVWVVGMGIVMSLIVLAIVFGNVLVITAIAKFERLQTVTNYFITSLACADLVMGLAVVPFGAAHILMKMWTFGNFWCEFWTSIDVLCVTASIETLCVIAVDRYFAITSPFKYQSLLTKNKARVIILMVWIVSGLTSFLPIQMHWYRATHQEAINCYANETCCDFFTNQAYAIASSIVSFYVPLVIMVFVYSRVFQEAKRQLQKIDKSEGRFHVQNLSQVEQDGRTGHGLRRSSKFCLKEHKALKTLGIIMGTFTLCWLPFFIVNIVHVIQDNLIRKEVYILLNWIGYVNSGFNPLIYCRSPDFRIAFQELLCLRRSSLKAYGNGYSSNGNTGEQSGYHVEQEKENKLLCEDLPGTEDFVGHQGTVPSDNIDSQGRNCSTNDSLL

COc1cc2nccc(Oc3ccc(NC(=O)C4(C(=O)Nc5ccc(F)cc5)CC4)cc3)c2cc1OC [CABOZANTINIB]
> 30 µM: all assays above

CC(=O)O[C@]1(C(C)=O)CC[C@H]2[C@@H]3C=C(C)C4=CC(=O)CC[C@@H]4[C@H]3CC[C@@]21C [NOMEGESTROL ACETATE]
not listed: [2] | [3] | [7]
> 30 µM: all other assays above
